As usually defined, the inhibition is the relative decrease from the control value, in per cent. Usually pIC50 stands for the negative decadic logarithm of the IC50, by convention in mol/L. Low values mean a large IC50, high ones a small IC50. The term pKi denotes the negative decadic logarithm of the Ki, by convention in mol/L. Lower therefore signals a high Ki.

The structures appear in SMILES notation. pIC50, pKi: −log10 of the molar value. Some results are limits rather than exact numbers.

This note sets out measurements from ChEMBL document CHEMBL2086274, “Synthesis, biological evaluation, and molecular docking of N-{3-[3-(9-methyl-9H-carbazol-3-yl)-acryloyl]-phenyl}-benzamide/amide derivatives as xanthine oxidase and tyrosinase inhibitors” (Bioorg Med Chem, 2012).

Data set [1] has as its target T1, Tyrosinase (Mus musculus) (UniProt P11344).
T1 sequence (whole entry): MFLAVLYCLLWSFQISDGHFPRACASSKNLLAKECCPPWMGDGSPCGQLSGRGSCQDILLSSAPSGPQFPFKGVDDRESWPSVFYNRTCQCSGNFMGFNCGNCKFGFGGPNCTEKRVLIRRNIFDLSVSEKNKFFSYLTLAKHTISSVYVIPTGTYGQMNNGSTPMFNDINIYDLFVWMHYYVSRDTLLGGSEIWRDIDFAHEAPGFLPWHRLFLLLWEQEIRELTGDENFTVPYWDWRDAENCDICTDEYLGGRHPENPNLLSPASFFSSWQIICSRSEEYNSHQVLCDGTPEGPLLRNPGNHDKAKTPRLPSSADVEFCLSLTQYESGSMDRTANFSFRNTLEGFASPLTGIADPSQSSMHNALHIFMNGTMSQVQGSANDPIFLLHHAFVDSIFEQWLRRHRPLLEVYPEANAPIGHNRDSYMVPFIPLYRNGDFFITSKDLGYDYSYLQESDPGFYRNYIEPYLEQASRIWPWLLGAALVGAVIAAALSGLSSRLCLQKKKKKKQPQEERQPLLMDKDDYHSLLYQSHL
The data set is described as follows: Inhibition of tyrosinase in mouse B16F10 cells assessed as reduction of melanin production at 20 ug/ml after 72 hrs. In kind it is cell-based. Conditions: B16-F10.

Data set [2] deals with Xanthine dehydrogenase/oxidase (Bos taurus, UniProt P80457).
Description: Inhibition of bovine milk XO assessed as decrease in uric acid formation after 5 mins by UV-spectrophotometric analysis
The target in data set [3] is T2, Tyrosinase (Agaricus bisporus, UniProt O42713).
T2 sequence (O42713 whole entry): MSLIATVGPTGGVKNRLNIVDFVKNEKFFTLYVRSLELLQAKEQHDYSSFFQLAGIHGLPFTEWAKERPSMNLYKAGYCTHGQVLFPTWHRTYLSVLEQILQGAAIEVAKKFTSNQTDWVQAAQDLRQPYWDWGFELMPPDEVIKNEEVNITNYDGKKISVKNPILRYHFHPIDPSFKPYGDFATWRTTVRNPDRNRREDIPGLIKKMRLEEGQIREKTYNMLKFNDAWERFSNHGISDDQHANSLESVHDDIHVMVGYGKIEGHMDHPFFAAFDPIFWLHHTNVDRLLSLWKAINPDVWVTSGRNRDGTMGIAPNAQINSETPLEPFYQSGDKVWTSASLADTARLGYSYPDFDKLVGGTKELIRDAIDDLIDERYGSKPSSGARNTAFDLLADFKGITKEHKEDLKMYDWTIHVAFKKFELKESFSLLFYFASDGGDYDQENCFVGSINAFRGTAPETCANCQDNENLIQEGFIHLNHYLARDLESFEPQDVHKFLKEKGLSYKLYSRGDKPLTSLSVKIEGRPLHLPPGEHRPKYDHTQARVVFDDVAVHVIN
Description: Inhibition of mushroom tyrosinase using L-tyrosine as substrate after 5 mins by UV-spectrophotometric analysis

Data set [4] concerns the target T2, Tyrosinase. This is another data set of the same source.
Description: Inhibition of mushroom tyrosinase using L-DOPA as substrate after 5 mins by UV-spectrophotometric analysis
Data set [5] is described as follows: Cytotoxicity against mouse B16F10 cells assessed as cell viability at 20 ug/ml after 76 hrs by MTT assay. In kind it is cell-based, B16-F10. The following applies: read-out: Activity. (In general: Formazan colour is commonly taken as a measure of viable cells.)
Data set [6] concerns the target T2, Tyrosinase. Kind of data set: Competitive inhibition of mushroom tyrosinase using L-DOPA as substrate after 5 mins by Lineweaver-Burk plot analysis.

Xanthine dehydrogenase/oxidase, sequence (P80457 whole entry): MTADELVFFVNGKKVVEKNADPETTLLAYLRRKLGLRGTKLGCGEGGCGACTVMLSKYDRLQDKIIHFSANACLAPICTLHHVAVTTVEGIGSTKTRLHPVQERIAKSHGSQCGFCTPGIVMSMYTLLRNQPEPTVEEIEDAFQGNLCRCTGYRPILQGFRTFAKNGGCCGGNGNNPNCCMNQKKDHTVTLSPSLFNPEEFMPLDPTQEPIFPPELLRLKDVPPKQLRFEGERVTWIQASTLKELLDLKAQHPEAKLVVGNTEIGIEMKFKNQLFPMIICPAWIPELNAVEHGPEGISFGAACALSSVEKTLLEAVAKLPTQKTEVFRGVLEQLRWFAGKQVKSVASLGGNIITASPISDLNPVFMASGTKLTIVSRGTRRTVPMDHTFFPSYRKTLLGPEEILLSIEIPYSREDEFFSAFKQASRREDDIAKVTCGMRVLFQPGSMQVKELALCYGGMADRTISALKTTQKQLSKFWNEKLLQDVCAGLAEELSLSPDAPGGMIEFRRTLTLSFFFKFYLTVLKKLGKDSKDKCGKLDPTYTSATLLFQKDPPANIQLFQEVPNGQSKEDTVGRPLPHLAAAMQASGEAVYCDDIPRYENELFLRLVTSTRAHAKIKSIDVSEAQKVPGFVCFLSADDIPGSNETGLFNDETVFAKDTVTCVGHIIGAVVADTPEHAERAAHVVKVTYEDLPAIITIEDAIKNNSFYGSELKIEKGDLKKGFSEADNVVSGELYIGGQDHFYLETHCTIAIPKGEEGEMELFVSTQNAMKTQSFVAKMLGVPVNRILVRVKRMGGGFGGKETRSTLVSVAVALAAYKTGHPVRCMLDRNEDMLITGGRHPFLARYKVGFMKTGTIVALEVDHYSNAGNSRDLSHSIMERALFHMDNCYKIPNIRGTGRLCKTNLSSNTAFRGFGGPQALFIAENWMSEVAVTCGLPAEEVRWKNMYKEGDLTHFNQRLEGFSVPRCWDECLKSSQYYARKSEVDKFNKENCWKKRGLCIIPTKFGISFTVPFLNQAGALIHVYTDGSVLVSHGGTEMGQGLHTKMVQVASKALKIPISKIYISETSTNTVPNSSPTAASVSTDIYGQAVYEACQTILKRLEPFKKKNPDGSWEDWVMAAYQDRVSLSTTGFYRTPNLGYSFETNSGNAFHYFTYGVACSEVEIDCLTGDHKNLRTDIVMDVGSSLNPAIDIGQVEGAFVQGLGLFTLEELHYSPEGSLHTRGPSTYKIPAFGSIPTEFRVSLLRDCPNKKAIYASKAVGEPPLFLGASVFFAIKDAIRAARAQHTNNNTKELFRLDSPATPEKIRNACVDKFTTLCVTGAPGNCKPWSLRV

As for `Cn1c2ccccc2c2cc(/C=C/C(=O)c3cccc(NC(=O)c4cccs4)c3)ccc21`, the inhibition in data set [1] came to 12.8%. For the same compound, the pIC50 in data set [2] is below 4.00; against Tyrosinase [3], 4.20; against Tyrosinase [4], 4.14. The viability at 76 h, 20 ug/ml in data set [5] worked out at 82.1%.

`Cn1c2ccccc2c2cc(/C=C/C(=O)c3cccc(NC(=O)c4cccc(F)c4)c3)ccc21`: the inhibition in data set [1] was 20.6%. In addition, the negative logarithm of the IC50 (pIC50) in data set [2] is 5.35; against Tyrosinase [3] it was 4.45; against Tyrosinase [4] it was 4.38. Also, the viability at 76 h, 20 ug/ml in data set [5] was found to be 83.9%.

Turning to `Cn1c2ccccc2c2cc(/C=C/C(=O)c3cccc(NC(=O)c4cccc(C(F)(F)F)c4)c3)ccc21`, the inhibition in data set [1] worked out at 30.1%. Further, the negative logarithm of the IC50 (pIC50) in data set [2] is 5.29; at Tyrosinase [3], 4.19; against Tyrosinase [4], 4.12. For the same compound, the viability at 76 h, 20 ug/ml in data set [5] was 80.1%.

`Cn1c2ccccc2c2cc(/C=C/C(=O)c3cccc(NC(=O)c4ccco4)c3)ccc21`: the inhibition in data set [1] was 10.7%. Also, the negative-log IC50 (pIC50) in data set [2] is below 4.00; against Tyrosinase [3] it was 4.33; against Tyrosinase [4], 4.22. In data set [5], the viability at 76 h, 20 ug/ml turned out to be 86.6%.

Take `Cc1ccc(C(=O)Nc2cccc(C(=O)/C=C/c3ccc4c(c3)c3ccccc3n4C)c2)cc1`: the inhibition in data set [1] amounted to 25.4%. Besides, the figures for the pIC50 (in data set [2]; against Tyrosinase [3]; on Tyrosinase [4]) were 5.28, 4.82 and 4.82, respectively. The viability at 76 h, 20 ug/ml in data set [5] was determined as 82.7%.

On to `CC(=O)Nc1cccc(C(=O)/C=C/c2ccc3c(c2)c2ccccc2n3C)c1`, for which, in data set [1], the inhibition was 15.6%. Moreover, the values for the negative logarithm of the IC50 (pIC50) (in data set [2]; against Tyrosinase [3]; against Tyrosinase [4]) were below 4.00, 4.10 and 4.11, respectively. Moreover, the viability at 76 h, 20 ug/ml in data set [5] is 80.6%.

Turning to `Cn1c2ccccc2c2cc(/C=C/C(=O)c3cccc(NC(=O)c4cccc(Br)c4)c3)ccc21`, the inhibition in data set [1] was 10.2%. Besides, the pIC50 in data set [2] is 4.05; against Tyrosinase [3], below 4.00; against Tyrosinase [4], below 4.00. Besides, in data set [5], the viability at 76 h, 20 ug/ml worked out at 78.9%.

For `Cn1c2ccccc2c2cc(/C=C/C(=O)c3cccc(NC(=O)c4ccc(F)cc4)c3)ccc21`, the inhibition in data set [1] was determined as 24%. Also, the pIC50 in data set [2] is 4.59; against Tyrosinase [3], 4.82; at Tyrosinase [4] it was 4.78. Further, the viability at 76 h, 20 ug/ml in data set [5] worked out at 88.7%.

On to `Cn1c2ccccc2c2cc(/C=C/C(=O)c3cccc(NC(=O)c4ccccc4Cl)c3)ccc21`, for which the inhibition in data set [1] came to 9.7%. Besides, the negative logarithm of the IC50 (pIC50) was 4.52 in data set [2], below 4.00 on Tyrosinase [3] and below 4.00 against Tyrosinase [4]. Also, the viability at 76 h, 20 ug/ml in data set [5] was 72%.

On to `Cn1c2ccccc2c2cc(/C=C/C(=O)c3cccc(NC(=O)c4ccc(Cl)cc4)c3)ccc21`, for which, in data set [1], the inhibition turned out to be 36.1%. Also, the figures for the pIC50 (in data set [2]; against Tyrosinase [3]; at Tyrosinase [4]) were 5.25, 4.76 and 4.82, respectively. The viability at 76 h, 20 ug/ml in data set [5] came to 81.1%.

For the compound `Cn1c2ccccc2c2cc(/C=C/C(=O)c3cccc(NC(=O)c4ccccc4F)c3)ccc21`, in data set [1], the inhibition came out at 40.5%. For the same compound, the values for the negative logarithm of the IC50 (pIC50) (in data set [2]; against Tyrosinase [3]; against Tyrosinase [4]) were 4.10, 4.74 and 4.82, respectively. The viability at 76 h, 20 ug/ml in data set [5] worked out at 84.5%.

With `Cn1c2ccccc2c2cc(/C=C/C(=O)c3cccc(NC(=O)c4ccc(C(C)(C)C)cc4)c3)ccc21`, the inhibition in data set [1] is 11.6%. The pIC50 in data set [2] is 4.24; on Tyrosinase [3], below 4.00; at Tyrosinase [4], below 4.00. The viability at 76 h, 20 ug/ml in data set [5] was 84%.

Take `Cc1ccccc1C(=O)Nc1cccc(C(=O)/C=C/c2ccc3c(c2)c2ccccc2n3C)c1`: the inhibition in data set [1] turned out to be 8.1%. The pIC50 (in data set [2]; against Tyrosinase [3]; at Tyrosinase [4]) was below 4.00 throughout. For the same compound, the viability at 76 h, 20 ug/ml in data set [5] was determined as 60.9%.

`Cn1c2ccccc2c2cc(/C=C/C(=O)c3cccc(NC(=O)C4CC4)c3)ccc21`: in data set [1], the inhibition came to 30%. Besides, the negative logarithm of the IC50 (pIC50) in data set [2] is 5.37; against Tyrosinase [3], 4.10; at Tyrosinase [4] it was 4.13. In addition, the viability at 76 h, 20 ug/ml in data set [5] stood at 79.5%.

Take `Cn1c2ccccc2c2cc(/C=C/C(=O)c3cccc(NC(=O)/C=C/c4ccccc4)c3)ccc21`: the inhibition in data set [1] was 15.9%. For the same compound, the negative-log IC50 (pIC50) was 5.29 in data set [2], 4.07 against Tyrosinase [3] and 4.11 against Tyrosinase [4]. The viability at 76 h, 20 ug/ml in data set [5] worked out at 81%.

As to `Cn1c2ccccc2c2cc(/C=C/C(=O)c3cccc(N)c3)ccc21`, the inhibition in data set [1] came to 20.1%. Besides, the negative-log IC50 (pIC50) in data set [2] is 4.31; at Tyrosinase [3] it was 4.32; against Tyrosinase [4] it was 4.30. The viability at 76 h, 20 ug/ml in data set [5] was 76.4%.

Take `Cc1cccc(C(=O)Nc2cccc(C(=O)/C=C/c3ccc4c(c3)c3ccccc3n4C)c2)c1`: the inhibition in data set [1] was determined as 21.7%. Also, the negative logarithm of the IC50 (pIC50) in data set [2] is 4.68; at Tyrosinase [3], 4.45; on Tyrosinase [4], 4.53. Moreover, in data set [5], the viability at 76 h, 20 ug/ml was found to be 83.6%.

Consider `Cn1c2ccccc2c2cc(/C=C/C(=O)c3cccc(NC(=O)c4ccccc4)c3)ccc21`, for which the inhibition in data set [1] stood at 42.5%. Also, the pIC50 was 4.37 in data set [2], 4.85 against Tyrosinase [3] and 4.82 on Tyrosinase [4]. This compound showed a pKi on Tyrosinase [6] of 4.93. For the same compound, the viability at 76 h, 20 ug/ml in data set [5] turned out to be 86.7%.

On to `Cn1c2ccccc2c2cc(/C=C/C(=O)c3cccc(NC(=O)c4cccc(Cl)c4)c3)ccc21`, for which the inhibition in data set [1] was 29.4%. The pIC50 in data set [2] was 5.36; at Tyrosinase [3] it was 4.32; against Tyrosinase [4], 4.25. Also, the viability at 76 h, 20 ug/ml in data set [5] was found to be 80.5%.
